{"source": "patent US9226498B2", "key": {"tame oats (AVESA) [1]": {"test_system": "tame oats (AVESA)", "assay": "Trial IV field trial, postemergence crop injury", "type": "in vivo, Avena sativa"}, "spring barley (HORVS) [2]": {"test_system": "spring barley (HORVS)", "assay": "Trial V field trial, postemergence crop injury", "type": "in vivo, Hordeum vulgare L"}, "spring barley (HORVS) [3]": {"test_system": "spring barley (HORVS)", "assay": "Trial IV cont. field trial, postemergence crop injury", "type": "in vivo, Hordeum vulgare L"}, "tame oats (AVESA) [4]": {"test_system": "tame oats (AVESA)", "assay": "Trial III field trial, postemergence crop injury", "type": "in vivo, Avena sativa"}, "spring wheat (TRZAS) [5]": {"test_system": "spring wheat (TRZAS)", "details": "Trial II", "description": "(§1) Five small plot field trials were established across various ecozones to evaluate the crop safety of florasulam and 4-amino-3-chloro-6-(4-chloro-2-fluoro-3-methoxy-phenyl)pyridine-2-carboxylic acid TEA (triethylamine) salt or of florasulam and 4-amino-3-chloro-6-(4-chloro-2-fluoro-3-methoxyphenyl)pyridine-2-carboxylic acid methyl ester, when applied alone or in combination, on spring cereals including spring wheat, spring barley and tame oats.\n(§2) In Trials III, IV, and V the methyl ester of the compound of formula (I) was applied alone at rates of 5-10 g ae/ha using a formulation containing 200 grams acid equivalent per kilogram (g ae/kg) of the methyl ester with 0.5% v/v Turbocharge adjuvant. […] All herbicide treatments were applied post-emergence in the spring to early summer Herbicides were applied with bicycle- or tractor-mounted sprayers using carbon dioxide (CO2) as a propellant. The sprayers delivered a uniform spray pattern that provided thorough coverage of the foliage using a 100 liter per hectare (L/ha) spray volume. At the time of herbicide applications, spring barley, spring wheat and tame oats were at the two leaf stage to the seven leaf, three tiller stage. Phytotoxicity to cereal crops was visually assessed as percent overall injury, compared to an untreated control plot. The overall injury assessments were based on visual ratings of growth inhibition, chlorosis, and delay in maturity. At late ratings, percent visual seed head deformity was also assessed. Trials were designed as randomized complete blocks with four replicates. In general, three to four replicates were assessed for each treatment.\n(§3) Colby's equation is: Expected=A+B−(A×B/100) • A=observed efficacy of active ingredient A at the same concentration as used in the mixture; • B=observed efficacy of active ingredient B at the same concentration as used in the mixture."}, "spring wheat (TRZAS) [6]": {"test_system": "spring wheat (TRZAS)", "details": "Trial I", "description": "as §1, §2, §3"}}, "note": "Like-named read-outs stand apart in the source and are kept apart here.", "data": [{"smiles": "COC(=O)c1nc(-c2ccc(Cl)c(OC)c2F)cc(N)c1Cl", "note": "[Compound II]", "values": [{"measurement": "Percent (%) Visual Injury 7 DAT Observed", "setting": "tame oats (AVESA) [1]; Compound II 5 g ae/ha alone", "value": 0.0, "unit": "d %"}, {"measurement": "Percent (%) Visual Injury 14 DAT Observed", "setting": "tame oats (AVESA) [1]; Compound II 5 g ae/ha alone", "value": 2.0, "unit": "cde %"}, {"measurement": "Percent (%) Visual Injury 28 DAT Observed", "setting": "tame oats (AVESA) [1]; Compound II 5 g ae/ha alone", "value": 3.3, "unit": "de %"}, {"measurement": "Percent (%) Visual Injury 53 DAT Observed", "setting": "tame oats (AVESA) [1]; Compound II 5 g ae/ha alone", "value": 2.5, "unit": "fgh %"}, {"measurement": "Percent (%) Visual Injury 7 DAT Observed", "setting": "tame oats (AVESA) [1]; Compound II 10 g ae/ha alone", "value": 1.3, "unit": "bcd %"}, {"measurement": "Percent (%) Visual Injury 14 DAT Observed", "setting": "tame oats (AVESA) [1]; Compound II 10 g ae/ha alone", "value": 9.5, "unit": "abc %"}, {"measurement": "Percent (%) Visual Injury 28 DAT Observed", "setting": "tame oats (AVESA) [1]; Compound II 10 g ae/ha alone", "value": 14.5, "unit": "ab %"}, {"measurement": "Percent (%) Visual Injury 53 DAT Observed", "setting": "tame oats (AVESA) [1]; Compound II 10 g ae/ha alone", "value": 9.4, "unit": "abc %"}, {"measurement": "Percent (%) Head Deformity 64 DAT Obs", "setting": "spring barley (HORVS) [2]; Compound II 5 g ae/ha alone", "value": 0.3, "unit": "b %"}, {"measurement": "Percent (%) Injury Visual 15 DAT Obs", "setting": "spring barley (HORVS) [2]; Compound II 5 g ae/ha alone", "value": 0.5, "unit": "a %"}, {"measurement": "Percent (%) Visual Injury 27 DAT Obs", "setting": "spring barley (HORVS) [2]; Compound II 5 g ae/ha alone", "value": 1.0, "unit": "c %"}, {"measurement": "Percent (%) Visual Injury 49 DAT Obs", "setting": "spring barley (HORVS) [2]; Compound II 5 g ae/ha alone", "value": 0.0, "unit": "c %"}, {"measurement": "Percent (%) Head Deformity 64 DAT Obs", "setting": "spring barley (HORVS) [2]; Compound II 10 g ae/ha alone", "value": 21.8, "unit": "ab %"}, {"measurement": "Percent (%) Injury Visual 15 DAT Obs", "setting": "spring barley (HORVS) [2]; Compound II 10 g ae/ha alone", "value": 0.5, "unit": "a %"}, {"measurement": "Percent (%) Visual Injury 27 DAT Obs", "setting": "spring barley (HORVS) [2]; Compound II 10 g ae/ha alone", "value": 0.0, "unit": "c %"}, {"measurement": "Percent (%) Visual Injury 49 DAT Obs", "setting": "spring barley (HORVS) [2]; Compound II 10 g ae/ha alone", "value": 0.5, "unit": "bc %"}, {"measurement": "Percent (%) Visual Head Deformity Obs", "setting": "spring barley (HORVS) [3]; Compound II 5 g ae/ha alone", "value": 0.0, "unit": "a %"}, {"measurement": "Percent (%) Visual Injury 7 DAT Obs", "setting": "spring barley (HORVS) [3]; Compound II 5 g ae/ha alone", "value": 0.0, "unit": "e %"}, {"measurement": "Percent (%) Visual Injury 14 DAT Obs", "setting": "spring barley (HORVS) [3]; Compound II 5 g ae/ha alone", "value": 0.0, "unit": "c %"}, {"measurement": "Percent (%) Visual Injury 28 DAT Obs", "setting": "spring barley (HORVS) [3]; Compound II 5 g ae/ha alone", "value": 3.3, "unit": "de %"}, {"measurement": "Percent (%) Visual Injury 70 DAT Obs", "setting": "spring barley (HORVS) [3]; Compound II 5 g ae/ha alone", "value": 2.5, "unit": "fgh %"}, {"measurement": "Percent (%) Visual Head Deformity Obs", "setting": "spring barley (HORVS) [3]; Compound II 10 g ae/ha alone", "value": 1.3, "unit": "a %"}, {"measurement": "Percent (%) Visual Injury 7 DAT Obs", "setting": "spring barley (HORVS) [3]; Compound II 10 g ae/ha alone", "value": 0.0, "unit": "e %"}, {"measurement": "Percent (%) Visual Injury 14 DAT Obs", "setting": "spring barley (HORVS) [3]; Compound II 10 g ae/ha alone", "value": 0.0, "unit": "c %"}, {"measurement": "Percent (%) Visual Injury 28 DAT Obs", "setting": "spring barley (HORVS) [3]; Compound II 10 g ae/ha alone", "value": 14.5, "unit": "ab %"}, {"measurement": "Percent (%) Visual Injury 70 DAT Obs", "setting": "spring barley (HORVS) [3]; Compound II 10 g ae/ha alone", "value": 9.4, "unit": "abc %"}, {"measurement": "Percent (%) Visual Head Deformity 70 DAT Obs", "setting": "tame oats (AVESA) [4]; Compound II 5 g ae/ha alone", "value": 7.5, "unit": "cd %"}, {"measurement": "Percent (%) Visual Injury 7 DAT Obs", "setting": "tame oats (AVESA) [4]; Compound II 5 g ae/ha alone", "value": 0.0, "unit": "d %"}, {"measurement": "Percent (%) Visual Injury 16 DAT Obs", "setting": "tame oats (AVESA) [4]; Compound II 5 g ae/ha alone", "value": 2.5, "unit": "de %"}, {"measurement": "Percent (%) Visual Injury 31 DAT Obs", "setting": "tame oats (AVESA) [4]; Compound II 5 g ae/ha alone", "value": 5.0, "unit": "fg %"}, {"measurement": "Percent (%) Visual Injury 70 DAT Obs", "setting": "tame oats (AVESA) [4]; Compound II 5 g ae/ha alone", "value": 15.8, "unit": "def %"}, {"measurement": "Percent (%) Visual Head Deformity 70 DAT Obs", "setting": "tame oats (AVESA) [4]; Compound II 10 g ae/ha alone", "value": 15.0, "unit": "bcd %"}, {"measurement": "Percent (%) Visual Injury 7 DAT Obs", "setting": "tame oats (AVESA) [4]; Compound II 10 g ae/ha alone", "value": 0.0, "unit": "d %"}, {"measurement": "Percent (%) Visual Injury 16 DAT Obs", "setting": "tame oats (AVESA) [4]; Compound II 10 g ae/ha alone", "value": 13.8, "unit": "cde %"}, {"measurement": "Percent (%) Visual Injury 31 DAT Obs", "setting": "tame oats (AVESA) [4]; Compound II 10 g ae/ha alone", "value": 25.0, "unit": "de %"}, {"measurement": "Percent (%) Visual Injury 70 DAT Obs", "setting": "tame oats (AVESA) [4]; Compound II 10 g ae/ha alone", "value": 33.8, "unit": "bcd %"}]}, {"smiles": "COc1c(Cl)ccc(-c2cc(N)c(Cl)c(C(=O)O)n2)c1F", "note": "[Compound I]", "values": [{"measurement": "Percent (%) Visual Incidence Head Deformity 55 DAT Obs", "setting": "spring wheat (TRZAS) [5]; Compound I 17.5 g ae/ha alone", "value": 7.5, "unit": "cde %"}, {"measurement": "Percent (%) Visual Injury 55 DAT Obs", "setting": "spring wheat (TRZAS) [5]; Compound I 17.5 g ae/ha alone", "value": 5.8, "unit": "de %"}, {"measurement": "Percent (%) Visual Incidence Head Deformity 55 DAT Obs", "setting": "spring wheat (TRZAS) [5]; Compound I 35 g ae/ha alone", "value": 43.8, "unit": "ab %"}, {"measurement": "Percent (%) Visual Injury 55 DAT Obs", "setting": "spring wheat (TRZAS) [5]; Compound I 35 g ae/ha alone", "value": 35, "unit": "a %"}, {"measurement": "Percent (%) Visual Incidence Head Deformity 71 DAT Obs", "setting": "spring wheat (TRZAS) [6]; Compound I 17.5 g ae/ha alone", "value": 20, "unit": "d-g %"}, {"measurement": "Percent (%) Visual Injury 71 DAT Obs", "setting": "spring wheat (TRZAS) [6]; Compound I 17.5 g ae/ha alone", "value": 12.5, "unit": "cd %"}, {"measurement": "Percent (%) Visual Incidence Head Deformity 71 DAT Obs", "setting": "spring wheat (TRZAS) [6]; Compound I 35 g ae/ha alone", "value": 60, "unit": "a %"}, {"measurement": "Percent (%) Visual Injury 71 DAT Obs", "setting": "spring wheat (TRZAS) [6]; Compound I 35 g ae/ha alone", "value": 32.5, "unit": "a %"}]}, {"smiles": "COc1ncc(F)c2nc(S(=O)(=O)Nc3c(F)cccc3F)nn12", "note": "[Florasulam, 2′,6′,8-trifluoro-5-methoxy[1,2,4]triazolo[1,5-c]pyrimidine-2-sulfonanilide, reference compound]", "values": [{"measurement": "Percent (%) Visual Incidence Head Deformity 55 DAT Obs", "setting": "spring wheat (TRZAS) [5]; Florasulam 5 g ai/ha alone", "value": 0.0, "unit": "e %"}, {"measurement": "Percent (%) Visual Injury 55 DAT Obs", "setting": "spring wheat (TRZAS) [5]; Florasulam 5 g ai/ha alone", "value": 0.0, "unit": "e %"}, {"measurement": "Percent (%) Visual Incidence Head Deformity 71 DAT Obs", "setting": "spring wheat (TRZAS) [6]; Florasulam 5 g ai/ha alone", "value": 0.0, "unit": "g %"}, {"measurement": "Percent (%) Visual Injury 71 DAT Obs", "setting": "spring wheat (TRZAS) [6]; Florasulam 5 g ai/ha alone", "value": 0, "unit": "e %"}]}]}
